In series [1] the test system is Macrophage. Put plainly: Inhibition of FMS-induced proliferation of bone marrow derived human macrophages. Type of series: functional, cell-based.
Series [2] concerns the target Macrophage colony-stimulating factor 1 receptor (Homo sapiens, UniProt P07333). Kind of series: biochemical.
Series [3] can be described thus: Half life in CD1 mouse at 2 mg/kg, iv and 10 mg/kg, po. The series is classed as ADME, organism-based. The settings on record: in vivo.
Series [4] can be described thus: Cmax in CD1 mouse at 2 mg/kg, iv and 10 mg/kg, po. The series is classed as ADME, organism-based. The settings on record: in vivo.
Series [5] can be described thus: Volume of distribution in CD1 mouse at 2 mg/kg, iv and 10 mg/kg, po. The series is classed as ADME, organism-based. Conditions: in vivo, read-out: Vdss.
Series [6] is described as follows: Oral bioavailability in CD1 mouse at 10 mg/kg. The series is classed as ADME, organism-based. The settings on record: in vivo.
For series [7], the target named is Mast/stem cell growth factor receptor Kit (Homo sapiens, UniProt P10721). Kind of series: Inhibition of Kit after 30 mins by fluorescence polarization.
Series [8] concerns the target High affinity nerve growth factor receptor (Homo sapiens, UniProt P04629). Kind of series: Inhibition of TrkA after 27 mins by fluorescence polarization.
For series [9], the system named is Mus musculus. Put plainly: Reduction in progression of collagen-induced arthritis scores in mouse CIA model at 30 mg/kg, po bid. Type of series: functional. Set-up: scale not given: the % may be the effect or the level left.
For series [10], the system named is Mus musculus. Put plainly: Reduction in progression of collagen-induced arthritis scores in mouse CIA model at 5 mg/kg, po bid. The series is classed as functional. Also noted: scale not given: the % may be the effect or the level left.
For series [11], the species on record is Mus musculus. Kind of series: Reduction in pannus formation in mouse CIA model BID for 14 days. The series is classed as functional. Also noted: scale not given: the % may be the effect or the level left.
The species named for series [12] is Mus musculus. Kind of series: Reduction in bone destruction in mouse CIA model BID for 14 days. Type of series: functional. Also noted: scale not given: the % may be the effect or the level left.

The values that follow come from ChEMBL document CHEMBL1141497, “Discovery of novel FMS kinase inhibitors as anti-inflammatory agents” (Bioorg Med Chem Lett, 2008).

Structures are written as SMILES. pIC50: −log10 of the molar value.

Sequence of Macrophage colony-stimulating factor 1 receptor (P07333 whole entry): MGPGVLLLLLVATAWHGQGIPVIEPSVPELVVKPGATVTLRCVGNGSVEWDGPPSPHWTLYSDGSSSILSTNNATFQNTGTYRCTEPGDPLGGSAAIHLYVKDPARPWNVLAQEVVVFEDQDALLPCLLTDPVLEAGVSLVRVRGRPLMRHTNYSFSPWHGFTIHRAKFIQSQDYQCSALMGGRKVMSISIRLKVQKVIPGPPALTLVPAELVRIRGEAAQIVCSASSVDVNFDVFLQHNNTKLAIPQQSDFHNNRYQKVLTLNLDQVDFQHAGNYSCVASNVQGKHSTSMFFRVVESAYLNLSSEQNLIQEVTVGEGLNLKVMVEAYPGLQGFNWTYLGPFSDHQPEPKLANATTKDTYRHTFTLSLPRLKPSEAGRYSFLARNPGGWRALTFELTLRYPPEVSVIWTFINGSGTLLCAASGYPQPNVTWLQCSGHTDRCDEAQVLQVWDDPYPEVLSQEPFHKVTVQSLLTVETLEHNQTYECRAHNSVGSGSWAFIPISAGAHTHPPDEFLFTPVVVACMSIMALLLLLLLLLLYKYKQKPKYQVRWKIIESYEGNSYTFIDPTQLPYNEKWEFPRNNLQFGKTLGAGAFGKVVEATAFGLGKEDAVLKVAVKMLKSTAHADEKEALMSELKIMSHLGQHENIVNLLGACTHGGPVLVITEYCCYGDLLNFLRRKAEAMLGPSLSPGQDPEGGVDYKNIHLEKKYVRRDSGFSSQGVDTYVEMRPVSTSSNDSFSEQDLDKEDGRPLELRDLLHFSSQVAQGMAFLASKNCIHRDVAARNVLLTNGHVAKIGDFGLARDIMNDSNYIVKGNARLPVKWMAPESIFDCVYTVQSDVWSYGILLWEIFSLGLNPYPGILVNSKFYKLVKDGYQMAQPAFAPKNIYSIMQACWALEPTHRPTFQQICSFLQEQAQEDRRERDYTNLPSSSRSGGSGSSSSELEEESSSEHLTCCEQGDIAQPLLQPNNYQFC
Sequence of High affinity nerve growth factor receptor (P04629 whole entry): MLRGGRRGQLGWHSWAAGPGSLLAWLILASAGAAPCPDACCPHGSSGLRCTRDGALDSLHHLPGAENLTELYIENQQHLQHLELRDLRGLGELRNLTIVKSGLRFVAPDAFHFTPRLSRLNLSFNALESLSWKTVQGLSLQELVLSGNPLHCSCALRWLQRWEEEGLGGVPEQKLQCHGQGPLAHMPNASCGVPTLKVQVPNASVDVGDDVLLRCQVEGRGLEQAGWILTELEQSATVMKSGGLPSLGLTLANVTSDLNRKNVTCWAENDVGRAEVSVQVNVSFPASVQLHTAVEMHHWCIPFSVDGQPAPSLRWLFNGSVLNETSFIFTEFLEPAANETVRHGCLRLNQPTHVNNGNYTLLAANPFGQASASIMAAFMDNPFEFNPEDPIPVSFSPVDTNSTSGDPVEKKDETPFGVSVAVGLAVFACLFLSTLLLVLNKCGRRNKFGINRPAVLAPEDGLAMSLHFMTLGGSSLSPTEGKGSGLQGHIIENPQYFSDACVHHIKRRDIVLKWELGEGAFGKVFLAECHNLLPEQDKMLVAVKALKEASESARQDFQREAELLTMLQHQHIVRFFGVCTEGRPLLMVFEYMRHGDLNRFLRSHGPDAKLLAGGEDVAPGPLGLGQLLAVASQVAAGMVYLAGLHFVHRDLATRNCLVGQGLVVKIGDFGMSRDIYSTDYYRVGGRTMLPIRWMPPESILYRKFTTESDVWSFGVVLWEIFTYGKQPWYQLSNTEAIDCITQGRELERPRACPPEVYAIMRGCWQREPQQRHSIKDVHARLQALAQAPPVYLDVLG
Sequence of Mast/stem cell growth factor receptor Kit (P10721 whole entry): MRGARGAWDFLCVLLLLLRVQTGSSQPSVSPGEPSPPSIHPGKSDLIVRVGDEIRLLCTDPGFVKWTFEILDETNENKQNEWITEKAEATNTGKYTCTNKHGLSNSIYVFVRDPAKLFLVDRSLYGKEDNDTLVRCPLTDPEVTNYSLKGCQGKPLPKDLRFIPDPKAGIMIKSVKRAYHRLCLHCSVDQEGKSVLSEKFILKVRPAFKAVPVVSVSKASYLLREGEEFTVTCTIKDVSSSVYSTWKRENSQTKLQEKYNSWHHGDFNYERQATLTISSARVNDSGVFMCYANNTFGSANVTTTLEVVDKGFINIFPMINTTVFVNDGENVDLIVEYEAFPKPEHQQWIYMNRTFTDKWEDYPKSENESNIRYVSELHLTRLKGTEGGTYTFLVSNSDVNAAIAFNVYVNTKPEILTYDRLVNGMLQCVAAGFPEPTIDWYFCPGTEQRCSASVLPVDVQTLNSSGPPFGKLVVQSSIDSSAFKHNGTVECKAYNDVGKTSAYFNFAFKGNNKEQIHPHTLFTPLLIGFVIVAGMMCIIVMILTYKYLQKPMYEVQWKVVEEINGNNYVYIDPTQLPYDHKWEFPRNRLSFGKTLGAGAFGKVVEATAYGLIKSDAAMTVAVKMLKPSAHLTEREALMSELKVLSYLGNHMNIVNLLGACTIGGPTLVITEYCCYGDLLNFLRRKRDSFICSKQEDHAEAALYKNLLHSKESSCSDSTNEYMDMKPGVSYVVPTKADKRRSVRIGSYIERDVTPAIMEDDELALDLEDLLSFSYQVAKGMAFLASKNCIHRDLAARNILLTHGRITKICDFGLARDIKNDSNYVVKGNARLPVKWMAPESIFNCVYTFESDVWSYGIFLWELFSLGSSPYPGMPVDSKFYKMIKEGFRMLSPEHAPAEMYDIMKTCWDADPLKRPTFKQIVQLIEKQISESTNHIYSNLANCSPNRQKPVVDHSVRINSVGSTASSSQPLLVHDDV

The term pIC50 denotes the IC50 on a negative log10 scale, so that one unit is a factor of ten. In the case of `CN1CCN(c2ccc(NC(=O)c3ccc(C#N)o3)c(N3CCOCC3)c2)CC1`, the pIC50 in series [1] is 5.55; in series [2], 7.10.

By half-life is commonly meant how long it takes for the measured level to halve. One may read the Cmax as the highest concentration seen after dosing. As usually defined, the bioavailability is the share of a dose that reaches the circulation, judged against a reference dose that is usually intravenous. In series [1], `CN1CCN(c2ccc(NC(=O)c3ccc(C#N)o3)c(N3CCCCC3)c2)CC1` had a pIC50 of 8.30. Moreover, in [3], the half-life turned out to be 1.03 h. The molecule also returned a Cmax in [4] of 386 ng/mL. In series [5], the Vd was 7.97 L/kg. In series [6], the bioavailability was 32%.

In series [2], `N#Cc1ccc(C(=O)Nc2ccc(N3CCS(=O)(=O)CC3)cc2N2CCCCC2)o1` showed a pIC50 of 9.15.

For `N#Cc1ccc(C(=O)Nc2ccc(N3CCCCC3)cc2N2CCCCC2)o1`, in series [2], the pIC50 was 7.77.

As to `N#Cc1ccc(C(=O)Nc2ccc(F)cc2N2CCCCC2)o1`, the pIC50 in series [2] is 7.20.

Regarding `CCOc1ccc(NC(=O)c2ccc(C#N)o2)c(N2CCCCC2)c1`, in series [2], the pIC50 is 7.68.

For the molecule `CC1CCN(c2nc(N3CCN(C)CC3)ccc2NC(=O)c2ccc(C#N)o2)CC1`, in series [2], the pIC50 was 8.00.

On to `CN1CCN(c2ccc(NC(=O)c3cc(C#N)c[nH]3)c(N3CCCCC3)c2)CC1`, for which the pIC50 in [1] was 8.70.

For the molecule `CN1CCN(c2ccc(NC(=O)c3ccc(C#N)o3)c(N3CCCCC3=O)c2)CC1`, the pIC50 in series [1] is less than 5.00; in [2], less than 7.22.

`CC(=O)N1CCN(c2ccc(NC(=O)c3cc(C#N)c[nH]3)c(N3CCC(C)CC3)c2)CC1`: in series [2], the pIC50 was 9.15.

Consider `CC1CCN(c2cc(N3CCN(S(C)(=O)=O)CC3)ccc2NC(=O)c2ccc(C#N)o2)CC1`, for which the pIC50 in series [2] is 9.05.

Regarding `CC1CCN(c2cc(N3CCN(C)CC3)ccc2NC(=O)c2ccc(C#N)o2)CC1`, the pIC50 in [1] is 8.70. Further, the half-life in [3] was found to be 1.63 h. Moreover, in series [4], the concentration peaked (Cmax) at 454 ng/mL. The Vd in series [5] turned out to be 11.4 L/kg. The molecule further showed a bioavailability in series [6] of 39%.

With `CN1CCN(c2ccc(NC(=O)c3ccc(C#N)o3)c(N3CCCC(F)C3)c2)CC1` (configuration not stated), the pIC50 in series [2] was 8.20.

As to `CC1CCN(c2cc(N3CCOCC3)ccc2NC(=O)c2ccc(C#N)o2)CC1`, in [2], the pIC50 was 7.96.

With `CN1CCN(C(=O)N(C)c2ccc(NC(=O)c3ccc(C#N)o3)c(N3CCCCC3)c2)CC1`, the pIC50 in series [2] was 7.08.

With `CCN(C)CCCc1ccc(NC(=O)c2ccc(C#N)o2)c(N2CCCCC2)c1`, in series [2], the pIC50 was 7.28.

Turning to `N#Cc1ccc(C(=O)Nc2ccc(-n3ccnc3)cc2N2CCCCC2)o1`, the pIC50 in series [2] is 8.52.

For the molecule `CC1CCN(c2cc(N3CCN(C)CC3)ccc2NC(=O)c2cc(C#N)c[nH]2)CC1`, in [3], the half-life was 4.07 h. Further, the highest level in series [4] (Cmax) was 853 ng/mL. Moreover, the Vd in series [5] was found to be 5.63 L/kg. The bioavailability in [6] stood at 45%. The pIC50 in series [7] is 8.46; in series [8] it was 7.96. Further, the Activity was determined as 65% in [9], 35% in [10], 80% in series [11] and 80% in series [12].

Molecule `CC1CCN(c2cc(N3CCNCC3)ccc2NC(=O)c2cc(C#N)c[nH]2)CC1` gave a pIC50 in series [2] of 9.00.

In the case of `CC1CCN(c2cc(N3CCN(C)CC3)cnc2NC(=O)c2ccc(C#N)o2)CC1`, the pIC50 in [2] was 6.14.

For the molecule `CS(=O)(=O)Nc1ccc(NC(=O)c2ccc(C#N)o2)c(N2CCCCC2)c1`, in [2], the pIC50 is 7.15.

For `Cc1cnn(-c2ccc(NC(=O)c3ccc(C#N)o3)c(N3CCCCC3)c2)c1`, the pIC50 in series [2] is 7.19.

For `CN(c1ccc(NC(=O)c2ccc(C#N)o2)c(N2CCCCC2)c1)S(C)(=O)=O`, the pIC50 in series [2] is 7.60.
